Reference: US4943595A, “Perfluorochemicals and process for preparing the same” (The Green Cross Corporation, priority 1984, dated 1990)

Experiment: Vapor pressure of the perfluorochemical
Details: 37.5° C.

Row | SMILES | Vapor pressure
1 | FC(F)(F)C(F)(F)C(F)(OC(F)(C(F)(F)F)C(F)(F)F)C(F)(C(F)(F)F)C(F)(F)F (stereo not shown) [Ex. 2, Perfluroo-3-isopropoxy-2-methylpentane] | 35-36 mmHg
2 | FC(F)(F)C(F)(F)C(F)(F)C(F)(F)OC(F)(C(F)(F)C(F)(F)F)C(F)(C(F)(F)F)C(F)(F)F (stereo not shown) [Ex. 3, Perfluoro-3-n-butoxy-methylpentane] | 11-13 mmHg
3 | FC(F)(F)C(F)(F)C(F)(OC(F)(F)C(F)(C(F)(F)F)C(F)(F)F)C(F)(C(F)(F)F)C(F)(F)F (stereo not shown) [Ex. 4, Perfluoro-3-isobutoxy-2-methyl pentane] | 14-15 mmHg
4 | FC(F)(F)C(F)(F)C(F)(OC(F)(C(F)(F)C(F)(F)F)C(F)(C(F)(F)F)C(F)(F)F)C(F)(F)F (stereo not shown) [Ex. 5, Perfluoro-3-sec-butoxy-2-methylpentane] | 13-14 mmHg
5 | FC(F)(F)C(F)(F)C(F)(OC(F)(F)C(F)(F)C(F)(C(F)(F)F)C(F)(F)F)C(F)(C(F)(F)F)C(F)(F)F (stereo not shown) [Ex. 6, Perfluoro-3-isopentoxy-2-methylpentane] | 8-9 mmHg

Same assay, conditions: 38° C.

Row | SMILES | Vapor pressure
6 | FC(F)(F)C(F)(F)OC(F)(C(F)(C(F)(F)F)C(F)(F)F)C(F)(C(F)(F)F)C(F)(F)F [Ex. 8, Perfluoro-3-ethoxy-2,4-dimethylpentane] | 30-31 mmHg
7 | FC(F)(F)C(F)(F)C(F)(F)C(F)(F)OC(F)(C(F)(C(F)(F)F)C(F)(F)F)C(F)(C(F)(F)F)C(F)(F)F [Ex. 10, Perfluoro-3-n-butoxy-2,4-dimethylpentane] | 8-9 mmHg
8 | FC(F)(F)C(F)(C(F)(F)F)C(F)(F)OC(F)(C(F)(C(F)(F)F)C(F)(F)F)C(F)(C(F)(F)F)C(F)(F)F [Ex. 11, Perfluoro-3-isobutoxy-2,4-dimethylpentane] | 8-9 mmHg
9 | FC(F)(F)C(F)(F)C(F)(F)C(OC(F)(C(F)(F)F)C(F)(F)F)(C(F)(F)F)C(F)(F)F [Ex. 13, Perfluoro-2-isopropoxy-2-methylpentane] | 29-30 mmHg
10 | FC(F)(F)C(F)(F)C(F)(F)C(F)(F)OC(C(F)(F)F)(C(F)(F)F)C(F)(F)C(F)(F)C(F)(F)F [Ex. 14, Perfluoro-2-n-butoxy-2-methylpentane] | 13-14 mmHg
11 | FC(F)(F)C(F)(F)C(F)(F)C(OC(F)(F)C(F)(C(F)(F)F)C(F)(F)F)(C(F)(F)F)C(F)(F)F [Ex. 15, Perfluoro-2-isobutoxy-2-methylpentane] | 15-16 mmHg
12 | FC(F)(F)C(F)(F)C(F)(F)C(OC(F)(C(F)(F)F)C(F)(F)C(F)(F)F)(C(F)(F)F)C(F)(F)F (stereo not shown) [Ex. 16, Perfluoro-2-sec-butoxy-2-methylpentane] | 15-16 mmHg
13 | FC(F)(F)C(F)(F)C(F)(F)C(OC(F)(F)C(F)(F)C(F)(C(F)(F)F)C(F)(F)F)(C(F)(F)F)C(F)(F)F [Ex. 17, Perfluoro-2-isovaleroxy-2-methylpentane] | 9-10 mmHg
14 | FC(F)(F)C(F)(F)OC(F)(F)C(F)(F)C(F)(F)C(F)(F)C(F)(F)C(F)(F)C(F)(F)F [Ex. 19, Perfluoro-1-ethoxyheptane] | 33 mmHg
15 | FC(F)(F)C(F)(F)C(F)(F)C(F)(F)C(F)(F)C(F)(F)C(F)(F)OC(F)(C(F)(F)F)C(F)(F)F [Ex. 20, Perfluoro-1-isopropoxyheptane] | 14-15 mmHg
16 | FC(F)(F)C(F)(F)C(F)(F)C(F)(F)OC(F)(F)C(F)(F)C(F)(F)C(F)(F)C(F)(F)C(F)(F)C(F)(F)F [Ex. 21, Perfluoro-1-n-butoxyheptane] | 8-9 mmHg
17 | FC(F)(F)C(F)(F)C(F)(F)C(F)(F)C(F)(F)C(F)(F)C(F)(F)OC(F)(F)C(F)(C(F)(F)F)C(F)(F)F [Ex. 22, Perfluoro-1-isobutoxyheptane] | 8-9 mmHg
18 | FC(F)(F)C(F)(F)C(F)(F)C(F)(F)C(F)(F)C(F)(F)C(F)(F)OC(F)(C(F)(F)F)C(F)(F)C(F)(F)F (stereo not shown) [Ex. 23, Perfluoro-1-sec-butoxyheptane] | 9-10 mmHg
19 | FC(F)(F)C(F)(F)C(F)(F)OC(F)(C(F)(F)C(F)(F)F)C(F)(C(F)(F)F)C(F)(F)F (stereo not shown) [Example 1, perfluoro-3-n-propoxy-2-methylpentane] | 29 mmHg
